Test results taken from ChEMBL document CHEMBL1154198, “Chemical genetics of Plasmodium falciparum” (Nature, 2010).

Experiments:
Plasmodium falciparum [1] = assay: ST_JUDE: Plasmodium falciparum 3D7 EC50 (uM) as measured by SYBR green dye; assay type: functional, organism-based
Plasmodium falciparum [2] = assay: ST_JUDE: Plasmodium falciparum K1 EC50 (uM) as measured by SYBR green dye; assay type: functional, organism-based

Row | EC50 (Plasmodium falciparum [1]) [µM] | EC50 (Plasmodium falciparum [2]) [µM] | SMILES
1 | > 15 | 8.96 | CCOC(=O)c1ccc(-n2[nH]c(-c3ccccc3)cc2=O)cc1
2 | 3.76 | 3.68 | O=C(c1cccc(Cl)c1)N1CCN(c2ccc([N+](=O)[O-])c(NC3CC3)c2)CC1
3 | > 15 | 0.595 | CCCOc1ccccc1C(=O)Nc1nonc1-c1ccc(OCC)c(OCC)c1
4 | 2.59 | 3.23 | O=C(Nc1ccc(-c2nc3cc(NC(=O)c4ccc(Br)o4)ccc3[nH]2)cc1)c1ccc(Br)o1
5 | 0.0625 | 0.0571 | CN1CCN(c2ccc(Nc3ccnc4cc(Cl)ccc34)cc2Cl)CC1
6 | > 15 | > 15 | CCOC(=O)c1ccc(N2Cc3ccccc3C2)cc1O
7 | > 15 | > 15 | COc1cc(/C=C(\C#N)c2nc(-c3ccc(Cl)cc3)cs2)cc([N+](=O)[O-])c1O
8 | 4.54 | > 15 | CCN1CCN(CCCNC(=O)c2cc3cc4ccc(Cl)cc4nc3o2)CC1
9 | 7.57 | 3.73 | COc1ccc(CN2CCN(CC(C)(C)C)C(CCO)C2)c(O)c1 (stereo not given)
10 | > 15 | 1.39 | COc1ccc(OC)c(C2C(C(=O)OC(C)C)=C(C)N=c3s/c(=C\c4ccc(O)cc4)c(=O)n32)c1 (stereo not given)
11 | 1.59 | 6.63 | COc1cc(CNCCCN(C)C)ccc1OCc1ccc(F)cc1Cl
12 | 4.06 | 5.95 | CS(=O)(=O)N(CC(=O)Nc1ccccc1Sc1ccccc1)c1ccc(Cl)c(Cl)c1
13 | 3.51 | 2.65 | COc1ccc2nc(N(Cc3cccnc3)C(=O)C3CCCCC3)sc2c1
14 | > 15 | > 15 | O=C(Cc1ccccc1)N(Cc1cccnc1)c1nc2ccc(Cl)cc2s1
15 | 1.31 | 1.61 | CCCSc1nc2sc3c(c2c(=O)n1-c1ccc(C)cc1)CCN(Cc1ccccc1)C3
16 | 2.29 | 2.42 | CCOc1cc(CN(C)Cc2nnc(SCc3ccccc3C)n2CC2CCCO2)ccc1OC (stereo not given)
17 | 1.71 | 0.735 | CC(C)CCNCC(O)CON=C1c2ccccc2-c2ccccc21 (stereo not given)
18 | 4.03 | 0.776 | CCOC(=O)c1ccc(OCC2c3cc(OC)c(OC)cc3CCN2C(=O)Nc2ccccc2)cc1 (stereo not given)
19 | 0.256 | 0.181 | O=C1C(Nc2ccc(I)cc2)=C(N2CCOCC2)C(=O)c2ccccc21
20 | > 15 | 5.3 | CCCCC(=O)NC(c1ccc(Cl)cc1Cl)c1ccc2cccnc2c1O (stereo not given)
21 | 0.753 | 4.74 | N=C(N/N=C\c1ccc(F)cc1)N/N=C\c1ccc(F)cc1

Row | EC50 (Plasmodium falciparum [1]) [µM] | EC50 (Plasmodium falciparum [2]) [µM] | SMILES
22 | 2.3 | > 15 | N=C(N/N=C\c1ccc(Br)cc1)N/N=C\c1ccc(Br)cc1
23 | > 15 | 1.54 | COc1ccc2c(=O)cc(C(Cl)(Cl)Cl)oc2c1
24 | 1.21 | 3.18 | CCCN1CCN(CCCNC(=O)c2ccc3c(c2)sc2nc(-c4cccc(OC)c4)cn23)CC1
25 | > 15 | > 15 | COc1ccccc1/C=C/CN1CCC(C(Cc2ccccc2)N(C)C(=O)c2cc(C)nn2C)CC1 (stereo not given)
26 | > 15 | > 15 | CCN(CC)C(=O)c1sc(NC(=O)CCc2ccccc2)c(C(=O)OC(C)C)c1C
27 | > 15 | 5.13 | CCCCC(=O)NC(c1ccc(C(C)C)cc1)c1cc([N+](=O)[O-])c2cccnc2c1O (stereo not given)
28 | 2.95 | 3.88 | CCOc1ccc(NC(=O)C2c3ccccc3C(=O)N(C3CCCC3)C2c2cccs2)cc1 (stereo not given)
29 | > 15 | > 15 | COc1ccc2cc3cc(C(=O)Nc4ccccc4N4CCN(C)CC4)sc3nc2c1
30 | > 15 | > 15 | CCN(CC)c1cc(C)c2cc(NC(=O)c3ccc(Cl)c([N+](=O)[O-])c3)ccc2n1
31 | 2.73 | 4.07 | O=C(NC(NC(=S)Nc1ccc(Cl)cc1)C(Cl)(Cl)Cl)c1ccccc1F (stereo not given)
32 | 2 | 6.21 | Cc1cc(N2CCN(C)CC2)nc2ccc(NC(=S)NCCN3CCN(c4ccccc4F)CC3)cc12
33 | 1.43 | 1.22 | Cc1ccc(Oc2c(C(F)(F)F)oc3c(CN4CCN(C)CC4)c(O)ccc3c2=O)cc1
34 | 7 | 2.71 | O=[N+]([O-])c1ccc(C2Nc3c(O)ccc(Br)c3C3C=CCC32)cc1 (stereo not given)
35 | > 15 | > 15 | CC(C)(C)c1ccc(C(=O)Nc2cccc(NC(=O)c3cccs3)c2)cc1
36 | 6.66 | 5.68 | Cc1ccc(C(C)(C)C)c(OCCCCn2ccnc2)c1
37 | 1.2 | 5.8 | Cc1cc(N2CCN(C)CC2)nc2ccc(NC(=S)NC3CCN(Cc4ccccc4)CC3)cc12
38 | > 15 | 1.65 | COc1ccc(OC)c2sc(N(Cc3cccnc3)C(=O)c3cccc(Cl)c3)nc12
39 | 3.8 | 4.78 | CCC(=O)NC(c1ccc(OC)c(OC)c1)c1ccc2cccnc2c1O (stereo not given)
40 | > 15 | > 15 | COc1cc(/C=C/C(=O)Nc2cccc(Br)c2)cc(OC)c1OC
41 | 2.31 | 2.72 | CCc1ccc(C(Nc2ccccn2)c2ccc3cccnc3c2O)cc1 (stereo not given)
42 | > 15 | 1.46 | O=C(CN(Cc1ccc(F)cc1)S(=O)(=O)c1ccc(Cl)cc1)Nc1ccccc1Cl

Row | EC50 (Plasmodium falciparum [1]) [µM] | EC50 (Plasmodium falciparum [2]) [µM] | SMILES
43 | > 15 | > 15 | COc1ccc(OCC(O)CN2CCN(c3ccc(OC)cc3)CC2)cc1 (stereo not given)
44 | > 15 | 5.17 | CCOc1ccc(/C=C2\Oc3c(ccc(O)c3CN(CC)CC)C2=O)cc1
45 | > 15 | > 15 | O=S(=O)(Nc1ccc(-c2ccc(N3CCCC3)nn2)cc1)c1ccc(Br)cc1
46 | 0.96 | 1.6 | COc1ccc(CCNC(=S)Nc2ccccc2Cl)cc1Br
47 | 1.49 | 2.27 | CCN(CC)CCOc1ccc2c(c1)C(=NO)c1cc(OCCN(CC)CC)ccc1-2
48 | 6.73 | 5.3 | COCCN1CCC(CN(Cc2ccncc2)Cc2ccc(CC(C)C)cc2)CC1
49 | 3.19 | 3.54 | CN(C)CCNC(=O)c1ccc2c(c1)sc1nc(-c3ccc(F)cc3)cn12
50 | 1.73 | 2.5 | CC(C)CC(=O)NC(NC(=S)Nc1cccc(Cl)c1)C(Cl)(Cl)Cl (stereo not given)
51 | > 15 | > 15 | CN(C)CCCNc1c2c(nc3ccccc13)CCC2
52 | > 15 | 0.335 | CCN(CC)C(=O)CSc1nc2cc(OC)c(OC)cc2c2nc(-c3ccccc3)nn12
53 | > 15 | > 15 | CCOc1ccccc1NC(=O)C(C)Oc1cccc(Br)c1 (stereo not given)
54 | 6.77 | 8.91 | COc1cc2c(cc1OC)C(COc1cccc(C(F)(F)F)c1)N(C(=O)C(C)(C)C)CC2 (stereo not given)
55 | > 15 | > 15 | O=C(/C=C/c1ccco1)Nc1ccc(C(F)(F)F)cc1
56 | > 15 | 5.33 | O=S(=O)(NCC(c1cccnc1)N1CCN(c2ccccc2F)CC1)c1ccc(F)cc1 (stereo not given)
57 | > 15 | 4.19 | O=C(O)c1cccc(NC2=C(n3nnc4ccccc43)C(=O)c3ccccc3C2=O)c1
58 | 2.4 | 6.15 | CCN1CCN(c2cc(C)c3cc(NC(=S)NCCN4CCN(c5cccc(Cl)c5)CC4)ccc3n2)CC1
59 | > 15 | > 15 | Cc1nc2nc(NCc3cccc(Br)c3)nn2c(O)c1C
60 | > 15 | > 15 | CCOC(=O)c1ccc2nc(C)cc(Nc3ccc(C)cc3C)c2c1
61 | 1.65 | > 15 | O=C(N/N=C/c1nc2ccccc2[nH]1)c1cccc(Cl)c1
62 | > 15 | > 15 | Cc1ccc(Nc2cc(C)nc(N3CCN(C(=O)Nc4cccc(Cl)c4)CC3)n2)cc1
63 | 6.54 | > 15 | COc1ccc(S(=O)(=O)n2nc(-c3ccc(Cl)cc3)cc2N)cc1OC

Row | EC50 (Plasmodium falciparum [1]) [µM] | EC50 (Plasmodium falciparum [2]) [µM] | SMILES
64 | 2.3 | 2.43 | Cn1c(=N)n(CC(O)c2ccc(Cl)c(Cl)c2)c2ccccc21 (stereo not given)
65 | > 15 | 3.84 | O=C(c1cccs1)N(Cc1cccnc1)c1nc2c(Cl)cccc2s1
66 | 1.61 | 1.04 | COc1ccc(CN2CCCC(N3CCN(c4ccc(F)cc4)CC3)C2)c(O)c1 (stereo not given)
67 | > 15 | > 15 | CCCc1cc(O)nc(-n2nc(C)cc2NC(=O)c2cc(C(F)(F)F)cc(C(F)(F)F)c2)n1
68 | > 15 | > 15 | COc1ccc(C(=O)Nc2cccc(-c3nc4ccccc4s3)c2)cc1[N+](=O)[O-]
69 | 3.39 | 4.68 | CCOc1ccc(/C=C(/C#N)c2nc3ccccc3[nH]2)cc1OC
70 | 1.75 | 2.02 | CC(=O)c1cccc(NC(=O)C2c3ccccc3C(=O)N(C3CCCC3)C2c2cccs2)c1 (stereo not given)
71 | 0.35 | > 15 | CN(C)CCCNCc1ccc2[nH]c3ccccc3c2c1
72 | > 15 | > 15 | COc1cc(/C=C(\C#N)C(=O)Nc2ccccc2F)cc(OC)c1OC
73 | 4.07 | 4.44 | CCC(=O)NC(c1ccc(N(C)C)cc1)c1ccc2cccnc2c1O (stereo not given)
74 | 4 | 3.84 | COc1ccc(N2C(=O)c3cccnc3C2Nc2ccc(C)cc2Cl)cc1 (stereo not given)
75 | > 15 | > 15 | CCCCCN1CCN(c2nc3c(c(=O)[nH]c(=O)n3C)n2Cc2ccc(C)cc2)CC1
76 | 3.64 | > 15 | COc1ccc(OC)c(/C=N/Nc2nc3ccccc3[nH]2)c1
77 | 1.4 | 0.65 | OC(CN1CCN(C/C=C/c2ccccc2)CC1)Cn1c2ccccc2c2ccccc21 (stereo not given)
78 | > 15 | > 15 | Cc1cc(C)c2c(=O)cc(C(Cl)(Cl)Cl)oc2c1
79 | > 15 | 3.53 | COc1ccc2nc(N(Cc3cccnc3)C(=O)CCc3ccccc3)sc2c1
80 | 2.28 | 1.71 | CCOC(=O)C1=C(c2ccc(F)cc2)C(=O)c2ccccc2C1=O
81 | 2.16 | 1.59 | Cc1cc(C)c2c(c1)c(-c1ccccc1)c(-c1ccccc1)n2CC(O)CN1CCN(CCO)CC1 (stereo not given)
82 | > 15 | 1.55 | CC(C)OC(=O)c1cc(NC(=S)Nc2ccc([N+](=O)[O-])cc2)cc(C(=O)OC(C)C)c1
83 | > 15 | 1.49 | COc1ccc2sc(N(Cc3cccnc3)C(=O)c3ccc(F)cc3)nc2c1
84 | 1.61 | 2.09 | Cc1n(C)c2ccccc2[n+]1CC(=O)c1ccc([N+](=O)[O-])cc1

Row | SMILES | EC50 (Plasmodium falciparum [1]) [µM] | EC50 (Plasmodium falciparum [2]) [µM]
85 | NNc1nc(Nc2ccc(F)cc2)nc(N2CCOCC2)n1 | 7.07 | 5.15
